In PubChem BioAssay AID248 (DTP/NCI, 2004):
Several values for one entry are separate records, joined by “and”; a condition that tells them apart may be missing. Identical values can stand only once. Inconclusive results and toxic doses are left out. Rule as the data show it: active = T/C of 150% or more; inactive = T/C below 125%.

Tested on: L1210 leukemia ip in BDF1 mice, survival T/C
Assay: NCI In Vivo Anticancer Drug Screen. Data for tumor model L1210 Leukemia (intraperitoneal) in B6D2F1 (BDF1) mice
Details: endpoint: mean survival time, higher = longer survival
In short: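 Transplantable tumor model; survival measured in treated vs vehicle control mice. Value = treated/control.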

[1] = dose: 100.0 mg/kg/injection, schedule: Q01DX009 (ip), vehicle: saline with Tween-80
[2] = dose: 100.0 mg/kg/injection, schedule: Q04DX003 (ip), vehicle: saline with Tween-80
[3] = dose: 200.0 mg/kg/injection, schedule: Q01DX009 (ip), vehicle: saline with Tween-80
[4] = dose: 200.0 mg/kg/injection, schedule: Q04DX003 (ip), vehicle: saline with Tween-80
[5] = dose: 400.0 mg/kg/injection, schedule: Q01DX009 (ip), vehicle: saline with Tween-80
[6] = dose: 400.0 mg/kg/injection, schedule: Q04DX003 (ip), vehicle: saline with Tween-80
[7] = dose: 100.0 mg/kg/injection, schedule: Q01DX009 (ip), vehicle: Klucel (hydroxypropylcellulose) (HPC)
[8] = dose: 200.0 mg/kg/injection, schedule: Q01DX009 (ip), vehicle: Klucel (hydroxypropylcellulose) (HPC)
[9] = dose: 100.0 mg/kg/injection, schedule: Q04DX003 (ip), vehicle: Klucel (hydroxypropylcellulose) (HPC)
[10] = dose: 100.0 mg/kg/injection, schedule: Q01DX001 (ip), vehicle: saline
[11] = dose: 100.0 mg/kg/injection, schedule: Q04DX002 (ip), vehicle: Klucel (hydroxypropylcellulose) (HPC)
[12] = dose: 100.0 mg/kg/injection, schedule: Q04DX002 (ip), vehicle: saline
[13] = dose: 100.0 mg/kg/injection, schedule: Q04DX003 (ip), vehicle: saline
[14] = dose: 200.0 mg/kg/injection, schedule: Q01DX001 (ip), vehicle: saline
[15] = dose: 200.0 mg/kg/injection, schedule: Q04DX002 (ip), vehicle: Klucel (hydroxypropylcellulose) (HPC)
[16] = dose: 200.0 mg/kg/injection, schedule: Q04DX003 (ip), vehicle: saline
[17] = dose: 400.0 mg/kg/injection, schedule: Q04DX003 (ip), vehicle: saline
[18] = dose: 200.0 mg/kg/injection, schedule: Q04DX003 (ip), vehicle: Klucel (hydroxypropylcellulose) (HPC)
[19] = dose: 50.0 mg/kg/injection, schedule: Q01DX009 (ip), vehicle: Klucel (hydroxypropylcellulose) (HPC)

Measured: T/C

C=CCOc1ccnc(N)n1
inactive: [1] 90 % of control | [2] 105 % of control | [3] 95 % of control | [4] 100 % of control | [5] 100 % of control | [6] 102 % of control

CCOC(=O)c1ccc2c(c1)nc1c3cccc4cccc(c(=O)n21)c43
inactive: [2] 86 % of control | [4] 92 % of control | [6] 98 % of control

COC(=O)c1ccccc1NC(=O)Nc1cc(OC)ccc1OC
inactive: [7] 98 % of control | [8] 102 % of control | dose: 400.0 mg/kg/injection, schedule: Q01DX009 (ip), vehicle: Klucel (hydroxypropylcellulose) (HPC) 93 % of control

O=C1CCCC/C1=C1/C(=O)Nc2ccccc21
inactive: dose: 50.0 mg/kg/injection, schedule: Q01DX009 (ip), vehicle: saline with Tween-80 104 % of control | [1] 118 % of control | [3] 110 % of control

CS(=O)(=O)OCCN(CCOS(C)(=O)=O)c1ccc(C=Nc2cc(Br)c(O)c(Br)c2)cc1
inactive: dose: 20.0 mg/kg/injection, schedule: Q04DX003 (ip), vehicle: Klucel (hydroxypropylcellulose) (HPC) 120 % of control | dose: 40.0 mg/kg/injection, schedule: Q04DX003 (ip), vehicle: Klucel (hydroxypropylcellulose) (HPC) 104 % of control | dose: 80.0 mg/kg/injection, schedule: Q04DX003 (ip), vehicle: Klucel (hydroxypropylcellulose) (HPC) 96 % of control | [9] 113 % of control

C/C(=C\c1cc(-c2ccccc2)cc(=O)o1)c1ccccc1
inactive: [1] 89 % of control | [2] 104 % of control | [3] 97 % of control | [4] 95 % of control | [5] 89 % of control | [6] 103 % of control

CCN(CC)C(C)C(=O)c1ccc2cc(Br)c3ccccc3c2c1 (stereo unspecified)
inactive: dose: 222.0 mg/kg/injection, schedule: Q01DX Z (ip), vehicle: methylcellulose (MC) 97 % of control | dose: 333.0 mg/kg/injection, schedule: Q01DX Z (ip), vehicle: methylcellulose (MC) 104 % of control | dose: 500.0 mg/kg/injection, schedule: Q01DX Z (ip), vehicle: methylcellulose (MC) 87 % of control

CC(C)(O)CNS(=O)(=O)c1ccc(Br)cc1
inactive: [7] 105 % of control | [8] 101 % of control

O=c1cc(NCc2cccc(Cl)c2)[nH]c(=O)[nH]1
inactive: dose: 100.0 mg/kg/injection, schedule: Q01DX001 (ip), vehicle: saline with Tween-80 91 % of control | dose: 200.0 mg/kg/injection, schedule: Q01DX001 (ip), vehicle: saline with Tween-80 86 % of control | dose: 400.0 mg/kg/injection, schedule: Q01DX001 (ip), vehicle: saline with Tween-80 89 % of control

CCOC(=O)Cn1c(C)cnc1C
inactive: [10] 112 % of control | dose: 100.0 mg/kg/injection, schedule: Q01DX009 (ip), vehicle: saline 96 % of control and 108 % of control | [11] 107 % of control | [12] 98 % of control | [13] 101 % of control | [14] 104 % of control | dose: 200.0 mg/kg/injection, schedule: Q01DX009 (ip), vehicle: saline 101 % of control and 91 % of control | [15] 100 % of control | dose: 200.0 mg/kg/injection, schedule: Q04DX002 (ip), vehicle: saline 113 % of control | [16] 99 % of control | dose: 400.0 mg/kg/injection, schedule: Q01DX001 (ip), vehicle: saline 98 % of control | dose: 400.0 mg/kg/injection, schedule: Q01DX009 (ip), vehicle: saline 96 % of control and 103 % of control | dose: 400.0 mg/kg/injection, schedule: Q04DX002 (ip), vehicle: Klucel (hydroxypropylcellulose) (HPC) 111 % of control | dose: 400.0 mg/kg/injection, schedule: Q04DX002 (ip), vehicle: saline 98 % of control | [17] 99 % of control

CS(=O)(=O)OC1CCCCC1Oc1ccc(Br)cc1 (stereo unspecified)
inactive: dose: 100.0 mg/kg/injection, schedule: Q01DX001 (ip), vehicle: Klucel (hydroxypropylcellulose) (HPC) 106 % of control | [9] 101 % of control | dose: 200.0 mg/kg/injection, schedule: Q01DX001 (ip), vehicle: Klucel (hydroxypropylcellulose) (HPC) 104 % of control | [18] 113 % of control | dose: 400.0 mg/kg/injection, schedule: Q01DX001 (ip), vehicle: Klucel (hydroxypropylcellulose) (HPC) 103 % of control | dose: 400.0 mg/kg/injection, schedule: Q04DX003 (ip), vehicle: Klucel (hydroxypropylcellulose) (HPC) 98 % of control

O=c1cc(-c2ccc(Cl)cc2)oc(-c2ccc(Cl)cc2)c1
inactive: [19] 94 % of control | [7] 93 % of control | [9] 89 % of control | [18] 92 % of control

Cc1cc(Cl)nc(Cl)n1
inactive: dose: 25.0 mg/kg/injection, schedule: Q04DX002 (ip), vehicle: saline 88 % of control | dose: 50.0 mg/kg/injection, schedule: Q04DX002 (ip), vehicle: saline 98 % of control | [12] 98 % of control

CC(=O)NC(=S)Nc1ccccc1
inactive: dose: 12.5 mg/kg/injection, schedule: Q04DX003 (ip), vehicle: Klucel (hydroxypropylcellulose) (HPC) 95 % of control | dose: 25.0 mg/kg/injection, schedule: Q04DX003 (ip), vehicle: Klucel (hydroxypropylcellulose) (HPC) 117 % of control | dose: 50.0 mg/kg/injection, schedule: Q04DX003 (ip), vehicle: Klucel (hydroxypropylcellulose) (HPC) 101 % of control

CN(N)/C(N)=N/N
inactive: [13] 97 % of control | [16] 102 % of control | [17] 97 % of control

CC(S)CN1CC1 (stereo unspecified)
inactive: [9] 107 % of control | [18] 105 % of control

Cc1cn(C2CC(OS(C)(=O)=O)C(COC(c3ccccc3)(c3ccccc3)c3ccccc3)O2)c(=O)[nH]c1=O (stereo unspecified)
inactive: dose: 100.0 mg/kg/injection, schedule: Q01DX005 (ip), vehicle: saline 104 % of control | dose: 200.0 mg/kg/injection, schedule: Q01DX005 (ip), vehicle: saline 96 % of control

CC1=C2[C@H]3OC(=O)[C@@H](C)[C@@H]3CC[C@@]2(C)C=C/C1=N\O
inactive: [10] 101 % of control | [14] 98 % of control

CCOC(=O)Cc1nc2ccccc2[nH]c1=O
inactive: dose: 50.0 mg/kg/injection, schedule: Q04DX002 (ip), vehicle: Klucel (hydroxypropylcellulose) (HPC) 107 % of control | [11] 96 % of control | [15] 96 % of control

c1ccc2c[n+](CCCCCCCCCC[n+]3ccc4ccccc4c3)ccc2c1
inactive: dose: 1.0 mg/kg/injection, schedule: Q01DX009 (ip), vehicle: saline 106 % of control | dose: 2.0 mg/kg/injection, schedule: Q01DX009 (ip), vehicle: saline 97 % of control | dose: 4.0 mg/kg/injection, schedule: Q01DX009 (ip), vehicle: saline 92 % of control | dose: 8.0 mg/kg/injection, schedule: Q04DX003 (ip), vehicle: saline 97 % of control | dose: 16.0 mg/kg/injection, schedule: Q04DX003 (ip), vehicle: saline 92 % of control | dose: 32.0 mg/kg/injection, schedule: Q04DX003 (ip), vehicle: saline 89 % of control

O=C(O)C(Cc1cc(I)c(O)c(I)c1)c1ccccc1 (stereo unspecified)
inactive: [19] 98 % of control | [7] 97 % of control | [9] 100 % of control | [8] 101 % of control | [18] 100 % of control

COC1CN(C)C(=Nc2cccc3ccccc23)S1 (stereo unspecified)
inactive: dose: 100.0 mg/kg/injection, schedule: Q01DX009 (ip), vehicle: other 100 % of control | dose: 100.0 mg/kg/injection, schedule: Q04DX003 (ip), vehicle: other 103 % of control | dose: 200.0 mg/kg/injection, schedule: Q01DX009 (ip), vehicle: other 94 % of control | dose: 200.0 mg/kg/injection, schedule: Q04DX003 (ip), vehicle: other 95 % of control | dose: 400.0 mg/kg/injection, schedule: Q01DX009 (ip), vehicle: other 97 % of control | dose: 400.0 mg/kg/injection, schedule: Q04DX003 (ip), vehicle: other 92 % of control

CC(=O)OC1CCC2(C)C(CCC3C2CCC2(C)C3CC3OC(CCC(C)O)C(C)C32)C1 (stereo unspecified)
inactive: dose: 25.0 mg/kg/injection, schedule: Q04DX002 (ip), vehicle: saline with Tween-80 102 % of control | dose: 50.0 mg/kg/injection, schedule: Q04DX002 (ip), vehicle: saline with Tween-80 98 % of control | dose: 100.0 mg/kg/injection, schedule: Q04DX002 (ip), vehicle: saline with Tween-80 94 % of control
